The record followed here is patent EP4703364A1, “QUINOLONE ANALOG AND USE THEREOF” (Horizon Omics Biotech Limited, priority 2023, dated 2024).

What is called bioavailability is dose-corrected exposure relative to a reference, in per cent. Lower therefore signals poor availability. One may read the EC50 as the concentration giving half of the maximal effect.

The target of one series is hERG (Homo sapiens, UniProt Q12809). The series can be described thus: hERG cardiotoxicity assay (patch clamp, hERG stably expressed HEK 293 cell line). Format: cell-based. Particulars: hERG current, HEK 293 cells, 5 doses. As to the method: Assay Method: 1) The hERG stably expressed HEK 293 cell line (Cat# K1236) was purchased from Invitrogen. Cells were cultured in a medium consisting of 85% DMEM, 10% FBS, 0.1 mM NEAA, 25 mM HEPES, 100 U/mL penicillin-streptomycin, 5 µg/mL Blasticidin, and 400 µg/mL Geneticin. Cells were passaged approximately three times a week using TrypLE™ Express and maintained at ~40% to ~80% confluency. Before assay, cells were placed on coverslips with 5×10^5 cells per 6-cm cell culture dish and induced with 1 µg/mL doxycycline for 48 hours. 2) The coverslip was removed from the cell culture dish and placed on the microscope stage. A suitable cell was located using a 10× objective. The tip of the electrode was located under the microscope using the 10× objective, and the focus was adjusted to the plane of the cell. Once the tip was in focus, the coarse control of the manipulator was used to advance the electrode downward toward the cell while moving the objective to keep the tip in focus. When directly above the cell, the objective was switched to 40× objective, and the fine control of the manipulator was used to approach the cell surface in small steps. 3) A blank control was first performed to establish a baseline. […] In the presence of the test compounds, the hERG current was recorded for approximately 5 minutes to reach a steady state, followed by capturing 5 scans. For dose-response testing, 5 doses of the test compounds were cumulatively applied to the cells from low to high concentrations. The positive control, dofetilide at a concentration of 150 nM, was applied to each cell, and the hERG current was measured in the test compounds at the highest concentration as a negative control to normalize the percentage of inhibition. To ensure good performance of the cultured cells and operations, cells from the same batch were also tested with 5 doses of dofetilide. Table 5. hERG Toxicity Assay Results
For orientation: hERG is a cardiac potassium channel; its block is linked to QT prolongation.

A further series relates to UWB1.289 Cells. As to the kind of experiment: Cell activity assay (CellTiterGlo), BRCA1 gene-deficient ovarian cancer cells UWB1.289. Format: cell-based. To be noted: UWB1289, 144 h, BRCA1 gene-deficient ovarian cancer cells UWB1.289, 6 days incubation. As to the method: (§1) • (1) Compound Treatment • a) Preparation of Stock Solutions of Compounds Test compounds were dissolved in DMSO at a concentration of 10 mM or 5 mM, and Olaparib was dissolved in DMSO at a concentration of 10 mM. • b) Compound Storage All compounds dissolved in DMSO were stored in a desiccator at room temperature for short-term storage and transferred to a -20°C refrigerator for long-term storage. • c) Preparation of Working Concentrations of Compounds
(§2) Test compounds were serially diluted in DMSO at a 3-fold gradient to prepare 10 concentration gradients, starting from 10 µM.
(§3) Olaparib was serially diluted in DMSO at a 3-fold gradient to prepare 10 concentration gradients, starting from 10 µM.
(§4) The 384-well plate loaded with the compounds was centrifuged at 1000 rpm for 1 minute.
(§5) • a) Cells were added to the culture medium and incubated in a cell culture incubator at 37°C with 5% CO2. • b) 40 µL of BRCA1- or BRCA2-deficient cells were added to a 384-well plate and incubated overnight at 37°C with 5% CO2. • c) The test compounds were prepared at different concentration gradients on the master plate, and 80 nL of the test compounds and Olaparib were taken from the master plate and added to the 384-well plate containing cells, and incubated at 37°C with 5% CO2 for 6 days. • d) CellTiterGlo (30 µL per well) was added to the 384-well plate, and after incubation at room temperature in the dark for 30 minutes, measurement was performed using an Envision plate reader.
(§6) • a) GraphPad Prism software was used to calculate the ICso and plot the activity curves as a function of concentration. • b) The inhibition of cell activity by the compounds was calculated using the following formula: % Inhibition = [1−(Cmpd−Blank)/(DMSO−Blank)]*100 [formula]
Background: Cellular ATP, detected with luciferase, serves as a proxy for viable cell number.

The test system of the next series is MDA-MB-436 cancer cells. As to the kind of experiment: Inhibition of human-derived cancer in mouse model (MDA-MB-436 subcutaneous tumors). The series is classed as in vivo, NOD SCID mice. Particulars: MDA-MB-436 model, oral, 100 mg/kg once a day for 28 days. Here is the method: The anti-cancer efficacy of the compounds of the present application was evaluated in NOD SCID mice. Female mice aged 6-8 weeks were subcutaneously inoculated with MDA-MB-436 cancer cells to form tumors. When the tumors reached a size of 100-150 mm^3, the mice were randomly divided into groups, with 6 mice in each group. The administration route was oral administration. Olaparib was administered once a day at a dose of 100 mg/kg for a total of 28 days. The vehicle control group and Compound H-31 were administered once every 3 days at a dose of 25 mg/kg.

For a further series, the system named is DLD1 BRCA2^-/-. As to the kind of experiment: Cell activity assay (CellTiterGlo), BRCA2 gene knockout DLD1 cancer cells. Format: cell-based. Particulars: Homo sapiens, DLD-1, 144 h, read-out: IC50(nM) DLD1 BRCA2^-/-. As to the method:
as §1, §2, §3, §4, §5, §6

The nature of series [1]: In-vivo pharmacokinetic study in mice (bioavailability testing). Particulars: mouse, plasma; oral (PO) and intravenous (IV) routes, female Balb/c nude mice. Here is the method:
Test compounds were administered to mice via oral (PO) and intravenous (IV) routes. The test compounds were dissolved at room temperature. The mice used in the study were Balb/c nude mice, all female, aged 6-8 weeks, with a body weight of 20-30 grams. Before administration, the mice had free access to food and water. Blood samples (approximately 0.03 mL per sample) were collected from the vein at appropriate time points. The samples were placed in tubes containing an anticoagulant and stored on ice until centrifugation. Blood samples were collected at 0.083, 0.25, 0.5, 1, 2, 4, 8, and 24 hours after intravenous administration, and at 0.25, 0.5, 1, 2, 4, 8, and 24 hours after oral administration. The blood samples were centrifuged at approximately 4000 rpm at 2-8 °C for 5 minutes. Plasma samples were then collected and stored frozen at approximately -80 °C until analysis. The LC-MS/MS system was used for bioanalytical work. Table 4. Bioavailability Testing

Series [2] is described as follows: Toxicity assay in mice, repeated dosing at 50 mg/kg, body weight. Format: in vivo. Particulars: 50 mg/kg PO once every 3 days. As to the method:
Test compounds were administered to mice via the oral (PO) route. The test compounds were dissolved at room temperature. The mice used in the study were all female, and aged 6-8 weeks. Before administration, the mice had free access to food and water. Vehicle control: 50 mM NaH2PO4, pH 4.0, administered once every 3 days. CX-5461 and Compound H-31 were administered once every 3 days at a dose of 50 mg/kg. If the body weight of the mice decreased by more than 15%, administration was suspended until the body weight recovered, after which administration was resumed.

The subject of series [3] is human herpesvirus HCMV-AD169. The series can be described thus: Antiviral cell-protective activity, GFP-labeled HCMV-AD169 in MRC5 cells. The series is classed as cell-based. Here is the method:
MRC5 cells were seeded in microplates at a specific density and cultured overnight in an incubator at 37 °C with 5% CO2. Serially diluted compounds and GFP-labeled human herpesvirus HCMV-AD169 were added to the microplates. A cell control group (cells without compound treatment or viral infection) and a virus control group (cells infected with the virus but without compound treatment) were set up. The test compounds and control compounds were tested at 8 concentrations, with 3-fold serial dilutions and triplicate wells for each concentration. Meanwhile, the cytotoxicity of the test compounds and control compounds on cells was determined. The cells were cultured in an incubator at 37 °C with 5% CO2 for 7 days. Acumen Cellista was used to detect the GFP fluorescence intensity inside the cells in each well. Cell viability detection reagents CCK-8 or Cell Titer Glo were used to measure cell viability, and the original data were used for calculating the cytotoxicity of the test compounds. GraphPad Prism software was applied to analyze the dose-response curves of the test compounds, calculate the virus inhibition EC50 and cytotoxicity CC50 values, and further calculate the therapeutic index (SI), using the formula SI = CC50/EC50, which was used to evaluate the therapeutic potential of the drug; a higher SI value indicates stronger efficacy of the drug against viruses.

Series [4] can be described thus: Toxicity assay in mice, repeated dosing at 55 mg/kg, body weight. To be noted: 55 mg/kg PO once every 3 days, 4 repeated administrations, female Balb/c mice. The series is classed as in vivo. Here is the method: Test compounds were administered to mice via the oral (PO) route. The test compounds were dissolved at room temperature. The mice (Balb/c) used in the study were all female, and aged 6-8 weeks. Before administration, the mice had free access to food and water.
Vehicle control: 50 mM NaH2PO4, pH 4.0. CX-5461 and the H series compounds were administered once every 3 days at a dose of 55 mg/kg, with four doses administered in total.

Chain of hERG (Q12809 whole entry): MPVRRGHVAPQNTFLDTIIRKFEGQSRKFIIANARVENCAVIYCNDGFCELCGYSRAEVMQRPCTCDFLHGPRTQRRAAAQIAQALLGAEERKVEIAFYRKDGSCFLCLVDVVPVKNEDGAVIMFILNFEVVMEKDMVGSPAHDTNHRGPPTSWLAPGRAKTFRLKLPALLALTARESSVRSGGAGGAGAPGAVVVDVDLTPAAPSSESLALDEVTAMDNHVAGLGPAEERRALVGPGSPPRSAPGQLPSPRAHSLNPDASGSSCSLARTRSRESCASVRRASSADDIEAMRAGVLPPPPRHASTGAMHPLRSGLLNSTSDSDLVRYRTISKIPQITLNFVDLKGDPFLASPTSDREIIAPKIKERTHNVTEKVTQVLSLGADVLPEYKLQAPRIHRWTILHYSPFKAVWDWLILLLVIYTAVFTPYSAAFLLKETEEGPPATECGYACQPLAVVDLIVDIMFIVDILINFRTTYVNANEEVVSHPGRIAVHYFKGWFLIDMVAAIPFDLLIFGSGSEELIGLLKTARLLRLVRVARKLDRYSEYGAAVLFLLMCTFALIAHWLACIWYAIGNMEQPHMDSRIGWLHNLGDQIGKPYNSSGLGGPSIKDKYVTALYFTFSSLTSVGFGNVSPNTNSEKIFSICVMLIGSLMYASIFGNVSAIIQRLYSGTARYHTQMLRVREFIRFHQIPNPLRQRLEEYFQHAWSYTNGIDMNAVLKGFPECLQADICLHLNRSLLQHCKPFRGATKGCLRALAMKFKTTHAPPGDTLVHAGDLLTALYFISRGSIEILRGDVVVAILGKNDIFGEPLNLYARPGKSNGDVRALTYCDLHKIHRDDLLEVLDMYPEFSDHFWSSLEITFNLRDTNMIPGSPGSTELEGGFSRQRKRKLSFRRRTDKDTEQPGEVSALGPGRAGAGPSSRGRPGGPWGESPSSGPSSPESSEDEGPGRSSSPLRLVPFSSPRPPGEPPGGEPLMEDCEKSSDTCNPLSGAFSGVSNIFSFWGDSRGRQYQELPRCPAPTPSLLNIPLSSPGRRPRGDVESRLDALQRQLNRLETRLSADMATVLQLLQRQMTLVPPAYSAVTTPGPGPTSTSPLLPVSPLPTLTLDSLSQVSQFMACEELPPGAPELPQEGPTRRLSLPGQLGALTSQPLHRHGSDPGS

In the case of `CSc1cnc(CNC(=O)c2c(=O)c3ccc(N4CCCN(C)CC4)nc3n3c2sc2ccccc23)nc1` [Compound H-18], the IC50 against hERG came out at 10.7 µM.

Consider `O=C(c1cc(Cc2n[nH]c(=O)c3ccccc23)ccc1F)N1CCN(C(=O)C2CC2)CC1` [Olaparib, reference compound], for which the values for the IC50 with UWB1.289 Cells and in the series with DLD1 BRCA2^-/- were 716 nM and 490 nM, respectively. Besides, the cancer inhibition rate with MDA-MB-436 cancer cells worked out at 63.4%.

Regarding `Cc1cnc(CNC(=O)c2c(=O)c3ccc(N4CCCN(C)CC4)nc3n3c2sc2ccccc23)cn1` [CX-5461], the bioavailability in series [1] is 33.8%. Further, the results for the IC50 in the series with UWB1.289 Cells, against hERG and with DLD1 BRCA2^-/- were 91.6 nM, 5.1 µM and 43.9 nM, respectively. For the same compound, the “overall condition / clinical symptoms” value in series [2] (21 days, female mice) was “poor overall condition, sluggish movement, and pallor in the tails and toes due to blood loss”. In series [2] (after 21 days of repeated administration, female mice), the “effect on mouse body weight” value was “significantly reduced the body weight of the mice”. Besides, in series [2] (administration halted for the entire group), the “average body weight loss” value is given as “exceeded 10%”. The compound `CN1CCCN(c2ccc3c(=O)c(C(=O)NCc4ncc(C5CC5)cn4)c4sc5ccccc5n4c3n2)CC1` [Compound H-27] returned a bioavailability in series [1] of 59.2%. `CN1CCCN(c2ccc3c(=O)c(C(=O)NCc4ncc(C(=O)N(C)C)cn4)c4sc5ccccc5n4c3n2)CC1` [Compound H-15] returned an IC50 at hERG above 30 µM. Compound `CN1CCCN(c2ccc3c(=O)c(C(=O)NCc4ncc(Cl)cn4)c4sc5ccccc5n4c3n2)CC1` [Compound H-2] registered a bioavailability in series [1] of 47.2%. Besides, in the series with DLD1 BRCA2^-/-, the IC50 is 33.8 nM. `COc1cnc(CNC(=O)c2c(=O)c3ccc(N4CCCN(C)CC4)nc3n3c2sc2ccccc23)nc1` [Compound H-16]: in the series with DLD1 BRCA2^-/-, the IC50 is 27.5 nM.

In series [1], `CN1CCCN(c2ccc3c(=O)c(C(=O)NCc4nccc(C5CC5)n4)c4sc5ccccc5n4c3n2)CC1` [Compound H-28] displayed a bioavailability of 41.6%. As to `Nc1nc(O)c2ncn(COC(CO)CO)c2n1` [Ganciclovir, reference compound], in series [3] (Human betaherpesvirus 5, 168 h, HCMV-AD169 GFP fluorescence, 7 days, read-out: Virus inhibition EC50), the 50% effective concentration (EC50) stood at 1600 nM. Also, in series [3] (therapeutic index, HCMV-AD169), the “SI (CC50/EC50)” value was above 60.7.

With `[2H]C([2H])([2H])N1C([2H])([2H])C([2H])([2H])CN(c2ccc3c(=O)c(C(=O)NCc4ncc(F)cn4)c4sc5ccccc5n4c3n2)C([2H])([2H])C1([2H])[2H]` [Compound H-8], the IC50 in the series on DLD1 BRCA2^-/- was 15.9 nM. In turn, `CCc1ccnc(CNC(=O)c2c(=O)c3ccc(N4CCCN(C)CC4)nc3n3c2sc2ccccc23)n1` [Compound H-22] had a bioavailability in series [1] of 40.6%. In addition, the IC50 in the series with DLD1 BRCA2^-/- came to 36.7 nM.

Regarding `[2H]C([2H])([2H])N1C([2H])([2H])C([2H])([2H])CN(c2ccc3c(=O)c(C(=O)NCc4ncccn4)c4sc5ccccc5n4c3n2)C([2H])([2H])C1([2H])[2H]` [Compound H-7], the IC50 with DLD1 BRCA2^-/- was 16.2 nM.

With `[2H]C1([2H])CN(c2ccc3c(=O)c(C(=O)NCc4ncc(F)cn4)c4sc5ccccc5n4c3n2)C([2H])([2H])C([2H])([2H])N(C)C1([2H])[2H]` [Compound H-6], in the series with DLD1 BRCA2^-/-, the IC50 turned out to be 23.8 nM.

As for `CN1CCCN(c2ccc3c(=O)c(C(=O)NCc4nccc(C#N)n4)c4sc5ccccc5n4c3n2)CC1` [Compound H-12], in series [1], the bioavailability stood at 49.1%. In addition, the IC50 in the series on DLD1 BRCA2^-/- was found to be 13.7 nM. With `CCc1cnc(CNC(=O)c2c(=O)c3ccc(N4CCCN(C)CC4)nc3n3c2sc2ccccc23)nc1` [Compound H-21], the bioavailability in series [1] worked out at 66.8%. `COc1ccnc(CNC(=O)c2c(=O)c3ccc(N4CCCN(C)CC4)nc3n3c2sc2ccccc23)n1` [Compound H-17] yielded a bioavailability in series [1] of 74.6%. Moreover, the deaths entry in series [4] is “no deaths observed”. Consider `CN1CCCN(c2ccc3c(=O)c(C(=O)NCc4ncc(C#N)cn4)c4sc5ccccc5n4c3n2)CC1` [Compound H-11], for which, in the series on DLD1 BRCA2^-/-, the IC50 worked out at 16.2 nM. As to `CN1CCCN(c2ccc3c(=O)c(C(=O)NCc4ncc(C(F)(F)F)cn4)c4sc5ccccc5n4c3n2)CC1` [Compound H-4], the deaths entry in series [4] was “no deaths observed”. The IC50 with DLD1 BRCA2^-/- turned out to be 36 nM. As to `CNc1cnc(CNC(=O)c2c(=O)c3ccc(N4CCCN(C)CC4)nc3n3c2sc2ccccc23)nc1` [Compound H-19], the IC50 in the series on DLD1 BRCA2^-/- stood at 30.3 nM.

Regarding `CN1CCCN(c2ccc3c(=O)c(C(=O)NCc4ncc(F)cn4)c4sc5ccccc5n4c3n2)CC1` [Compound H-1], the bioavailability in series [1] was 60.7%. For the same compound, the IC50 with DLD1 BRCA2^-/- turned out to be 37.7 nM. At hERG, `CNC(=O)c1cnc(CNC(=O)c2c(=O)c3ccc(N4CCCN(C)CC4)nc3n3c2sc2ccccc23)nc1` [Compound H-13] yielded an IC50 above 30 µM.
